Reference: PMC4281103 (Journal of Medicinal Chemistry, 2014)

Legend:
male Sprague–Dawley rats [1] = settings: rat, in vivo; cited from earlier work
human μ-opioid receptor = human μ-opioid receptor (Homo sapiens, UniProt P35372); experiment: Inhibition of forskolin-induced cAMP accumulation in MOR-CHO cells; format: cell-based; settings: selectivity for KOR
male Sprague–Dawley rats [2] = experiment: Rat reinstatement assay: cocaine-prime-induced reinstatement of drug seeking; format: in vivo; settings: for inactive lever pressing during self-administration, extinction and reinstatement: 2 1.0 mg/kg, 24 1.0 mg/kg, 36 0.3 mg/kg; for dose required to significantly reduce active lever responses: ip, cocaine-prime-induced reinstatement, rat
male Sprague–Dawley rats [3] = experiment: Rat spontaneous locomotor activity; format: in vivo; settings: acute ip; 2 1.0 mg/kg, 24 1.0 mg/kg, 36 0.3 mg/kg; total ambulatory counts over 60 min
human κ-opioid receptor = human κ-opioid receptor (Homo sapiens, UniProt P41145); format: cell-based
Sequence of human κ-opioid receptor (P41145 whole entry): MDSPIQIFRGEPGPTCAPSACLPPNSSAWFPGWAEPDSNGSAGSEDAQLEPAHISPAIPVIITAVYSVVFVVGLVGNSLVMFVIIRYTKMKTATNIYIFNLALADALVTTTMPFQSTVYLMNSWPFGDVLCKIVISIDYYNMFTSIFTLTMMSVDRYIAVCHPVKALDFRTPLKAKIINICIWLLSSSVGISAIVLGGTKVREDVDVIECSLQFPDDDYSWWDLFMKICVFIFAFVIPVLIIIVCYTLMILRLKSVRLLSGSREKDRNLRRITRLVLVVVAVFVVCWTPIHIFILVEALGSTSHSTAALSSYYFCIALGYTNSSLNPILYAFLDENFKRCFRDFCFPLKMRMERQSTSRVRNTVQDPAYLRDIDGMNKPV

Sequence of human μ-opioid receptor (P35372 whole entry): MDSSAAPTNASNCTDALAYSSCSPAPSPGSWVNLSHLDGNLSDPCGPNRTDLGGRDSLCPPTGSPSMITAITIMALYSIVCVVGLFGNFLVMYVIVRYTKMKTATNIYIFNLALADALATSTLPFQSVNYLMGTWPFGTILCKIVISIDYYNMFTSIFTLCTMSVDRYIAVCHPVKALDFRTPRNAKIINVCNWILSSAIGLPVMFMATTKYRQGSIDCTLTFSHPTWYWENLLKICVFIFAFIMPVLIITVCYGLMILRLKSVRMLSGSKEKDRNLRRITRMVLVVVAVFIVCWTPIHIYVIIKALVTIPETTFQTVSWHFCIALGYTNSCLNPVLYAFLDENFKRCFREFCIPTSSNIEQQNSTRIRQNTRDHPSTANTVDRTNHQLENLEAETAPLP

SMILES | activity at the MOR (human μ-opioid receptor) | inactive lever pressing during self-administration, extinction and reinstatement (male Sprague–Dawley rats [2]) | dose required to significantly reduce active lever responses (male Sprague–Dawley rats [2]) [mg/kg] | effect on spontaneous locomotor activity vs vehicle-treated animals (male Sprague–Dawley rats [3]) | further results
COC(=O)[C@@H]1C[C@H](OC(C)=O)C(=O)[C@H]2[C@@]1(C)CC[C@H]1C(=O)O[C@H](c3ccoc3)C[C@]21C [Compound 1, Salvinorin A] |  |  |  |  | effect on drug-seeking behavior and spontaneous locomotor activity (male Sprague–Dawley rats [1]): reduces drug-seeking behavior at a dose that does not affect spontaneous locomotor activity
COC(=O)[C@@H]1C[C@H](OC(C)=O)C(=O)[C@H]2[C@@]1(C)CC[C@H]1C(=O)O[C@H](c3ccoc3Br)C[C@]21C [Compound 2] | no activity at the MOR | no significant changes | 0.3 | no significant difference | 
COC(=O)[C@@H]1C[C@H](OC(C)=O)C(=O)[C@H]2[C@@]1(C)CC[C@H]1C(=O)O[C@H](c3ccoc3C)C[C@]21C [Compound 24] | no activity at the MOR | no significant changes |  | no significant difference | 
C#Cc1occc1[C@@H]1C[C@]2(C)[C@H]3C(=O)[C@@H](OC(C)=O)C[C@@H](C(=O)OC)[C@]3(C)CC[C@H]2C(=O)O1 [Compound 36] | no activity at the MOR | no significant changes | 0.1 | no significant difference | 
COC(=O)[C@@H]1C[C@H](OC(C)=O)C(=O)[C@H]2[C@@]1(C)CC[C@H]1C(=O)O[C@H](c3ccoc3C=O)C[C@]21C [Compound 49, (2S,4aR,6aR,7R,9S,10aS,10bR)-Methyl 9-Acetoxy-2-(2-formylfuran-3-yl)-6a,10b-dimethyl-4,10-dioxododecahydro-1H-benzo[f]isochromene-7-carboxylate] |  |  |  |  | times less potent than 29 (KOR) (human κ-opioid receptor): approximately 7 times
COC(=O)[C@@H]1C[C@H](OC(C)=O)C(=O)[C@H]2[C@@]1(C)CC[C@H]1C(=O)O[C@H](c3ccoc3C#N)C[C@]21C [Compound 50, (2S,4aR,6aR,7R,9S,10aS,10bR)-Methyl 9-Acetoxy-2-(2-cyanofuran-3-yl)-6a,10b-dimethyl-4,10-dioxododecahydro-1H-benzo[f]isochromene-7-carboxylate] |  |  |  |  | times less potent than 36 (KOR) (human κ-opioid receptor): more than 500 times
